{"source": "paper PMC5218480", "about": "(PLoS ONE, 2017)", "system": "MV-4-11 cells", "test": "Gene expression microarray analysis (Affymetrix PrimeView) and GSEA", "format": "cell-based, human", "parameters": "RFU PODN (11730768_x_at) / Fold change /veh PODN (11730768_x_at) / RFU LINC00158 (11744669_a_at) / Fold change /veh LINC00158 (11744669_a_at) / RFU DUSP10 (11751237_a_at) / Fold change /veh DUSP10 (11751237_a_at) / RFU ID3 (11757404_x_at) / Fold change /veh ID3 (11757404_x_at) / RFU PLEKHG5 (11737974_s_at) / Fold change /veh PLEKHG5 (11737974_s_at) / RFU LRRC4B (11730491_at) / Fold change /veh LRRC4B (11730491_at) / RFU GIMAP4 (11747438_a_at) / Fold change /veh GIMAP4 (11747438_a_at) / RFU KRT8 (11758183_x_at) / Fold change /veh KRT8 (11758183_x_at) / RFU CNN1 (11734310_a_at) / Fold change /veh CNN1 (11734310_a_at) / RFU VPS37D (11726825_at) / Fold change /veh VPS37D (11726825_at) / RFU C10orf10 (11716522_x_at) / Fold change /veh C10orf10 (11716522_x_at) / RFU KIR2DL2 /// KIR2DL4 /// KIR2DL5A /// KIR2DL5B /// KIR2DS1 /// KIR2DS2 /// KIR2DS3 /// KIR2DS4 /// KIR3DL3 /// KIR3DL3 /// KIR3DS1 (11738374_at) / Fold change /veh KIR2DL2 /// KIR2DL4 /// KIR2DL5A /// KIR2DL5B /// KIR2DS1 /// KIR2DS2 /// KIR2DS3 /// KIR2DS4 /// KIR3DL3 /// KIR3DL3 /// KIR3DS1 (11738374_at) / RFU C1QL1 (11718748_at) / Fold change /veh C1QL1 (11718748_at) / RFU TMPRSS4 (11747572_a_at) / Fold change /veh TMPRSS4 (11747572_a_at) / RFU HAMP (11756126_x_at) / Fold change /veh HAMP (11756126_x_at) / RFU RNFT2 (11725882_a_at) / Fold change /veh RNFT2 (11725882_a_at) / RFU NR4A2 (11747474_a_at) / Fold change /veh NR4A2 (11747474_a_at) / RFU ABCC12 (11746883_a_at) / Fold change /veh ABCC12 (11746883_a_at) / RFU TMEM136 (11760407_x_at) / Fold change /veh TMEM136 (11760407_x_at) / RFU CLDN22 /// WWC2 (11732394_at) / Fold change /veh CLDN22 /// WWC2 (11732394_at) / RFU HLA-DPB1 (11760878_x_at) / Fold change /veh HLA-DPB1 (11760878_x_at) / RFU SPINT1 (11716480_a_at) / Fold change /veh SPINT1 (11716480_a_at) / RFU GAP43 (11754022_s_at) / Fold change /veh GAP43 (11754022_s_at) / RFU A4GNT (11735810_at) / Fold change /veh A4GNT (11735810_at) / RFU PRB3 (11715151_x_at) / Fold change /veh PRB3 (11715151_x_at) / RFU TUBB4B (11761932_at) / Fold change /veh TUBB4B (11761932_at) / RFU CAPN14 (11732068_a_at) / Fold change /veh CAPN14 (11732068_a_at) / RFU TMCC2 (11721928_a_at) / Fold change /veh TMCC2 (11721928_a_at) / RFU IRGQ (11745062_a_at) / Fold change /veh IRGQ (11745062_a_at) / RFU FAM174B (11720279_a_at) / Fold change /veh FAM174B (11720279_a_at) / RFU TMPRSS4 (11748680_a_at) / Fold change /veh TMPRSS4 (11748680_a_at) / RFU FAM212B (11763350_a_at) / Fold change /veh FAM212B (11763350_a_at) / RFU PLEKHG5 (11743358_a_at) / Fold change /veh PLEKHG5 (11743358_a_at) / RFU ZSCAN30 (11745921_a_at) / Fold change /veh ZSCAN30 (11745921_a_at) / RFU CMKLR1 (11741424_a_at) / Fold change /veh CMKLR1 (11741424_a_at) / RFU LOC101060620 /// MAPK8IP1 (11723275_at) / Fold change /veh LOC101060620 /// MAPK8IP1 (11723275_at) / RFU SPTSSB (11747773_x_at) / Fold change /veh SPTSSB (11747773_x_at) / RFU PRSS12 (11739890_at) / Fold change /veh PRSS12 (11739890_at) / RFU BIN1 (11741810_x_at) / Fold change /veh BIN1 (11741810_x_at) / RFU WNT11 (11732464_a_at) / Fold change /veh WNT11 (11732464_a_at) / RFU C10orf10 (11716521_a_at) / Fold change /veh C10orf10 (11716521_a_at) / RFU C5orf56 (11738089_at) / Fold change /veh C5orf56 (11738089_at) / RFU CYB561 (11721691_x_at) / Fold change /veh CYB561 (11721691_x_at) / RFU ANKRD19P (11752326_a_at) / Fold change /veh ANKRD19P (11752326_a_at) / RFU OR2T12 /// OR2T33 /// OR2T8 (11738714_s_at) / Fold change /veh OR2T12 /// OR2T33 /// OR2T8 (11738714_s_at) / RFU VCAN (11748164_a_at) / Fold change /veh VCAN (11748164_a_at) / RFU JSRP1 (11732532_at) / Fold change /veh JSRP1 (11732532_at) / RFU KRTAP10-11 (11738290_x_at) / Fold change /veh KRTAP10-11 (11738290_x_at) / RFU MYO3A (11730013_a_at) / Fold change /veh MYO3A (11730013_a_at) / RFU EBF3 (11725865_a_at) / Fold change /veh EBF3 (11725865_a_at) / RFU CAMK2N1 (11719241_x_at) / Fold change /veh CAMK2N1 (11719241_x_at) / RFU C5orf56 (11738088_a_at) / Fold change /veh C5orf56 (11738088_a_at) / RFU OLFML3 (11715873_a_at) / Fold change /veh OLFML3 (11715873_a_at) / RFU LOC100653217 /// NTM (11731650_a_at) / Fold change /veh LOC100653217 /// NTM (11731650_a_at) / RFU MAPK11 (11762145_a_at) / Fold change /veh MAPK11 (11762145_a_at) / RFU FIZ1 (11724087_x_at) / Fold change /veh FIZ1 (11724087_x_at) / RFU OASL (11726364_x_at) / Fold change /veh OASL (11726364_x_at) / RFU SOX15 (11748057_x_at) / Fold change /veh SOX15 (11748057_x_at) / RFU CD79A (11719716_a_at) / Fold change /veh CD79A (11719716_a_at) / RFU HIST1H1D (11736915_at) / Fold change /veh HIST1H1D (11736915_at) / RFU CASKIN2 (11723855_a_at) / Fold change /veh CASKIN2 (11723855_a_at) / RFU LOC730098 (11760151_x_at) / Fold change /veh LOC730098 (11760151_x_at) / RFU OR4N2 (11742367_at) / Fold change /veh OR4N2 (11742367_at) / RFU PRRT2 (11749266_a_at) / Fold change /veh PRRT2 (11749266_a_at) / RFU SNX32 (11753110_a_at) / Fold change /veh SNX32 (11753110_a_at) / RFU CDHR5 (11726645_a_at) / Fold change /veh CDHR5 (11726645_a_at) / RFU RCAN1 (11760418_a_at) / Fold change /veh RCAN1 (11760418_a_at) / RFU FAM167A (11723789_a_at) / Fold change /veh FAM167A (11723789_a_at) / RFU FAM26E (11764081_at) / Fold change /veh FAM26E (11764081_at) / RFU ISYNA1 (11749810_s_at) / Fold change /veh ISYNA1 (11749810_s_at) / RFU ACY1 (11761880_at) / Fold change /veh ACY1 (11761880_at) / RFU 11764098_at / Fold change /veh 11764098_at / RFU SAMD14 (11745864_x_at) / Fold change /veh SAMD14 (11745864_x_at) / RFU NPB (11741838_a_at) / Fold change /veh NPB (11741838_a_at) / RFU TMPRSS6 (11731388_a_at) / Fold change /veh TMPRSS6 (11731388_a_at) / RFU KRTAP10-2 (11738614_at) / Fold change /veh KRTAP10-2 (11738614_at) / RFU ARHGAP8 /// PRR5-ARHGAP8 (11727945_x_at) / Fold change /veh ARHGAP8 /// PRR5-ARHGAP8 (11727945_x_at) / RFU KRTAP5-7 /// NADSYN1 (11734609_at) / Fold change /veh KRTAP5-7 /// NADSYN1 (11734609_at) / RFU RASL12 (11751679_a_at) / Fold change /veh RASL12 (11751679_a_at) / RFU CDKN2B (11736163_a_at) / Fold change /veh CDKN2B (11736163_a_at) / RFU PRF1 (11729649_at) / Fold change /veh PRF1 (11729649_at) / RFU, ZNF638 /// ZNF638-IT1 / Fold change vs veh, ZNF638 /// ZNF638-IT1 / RFU, PANK3 / Fold change vs veh, PANK3 / RFU, SH3YL1 / Fold change vs veh, SH3YL1 / RFU, ZEB2 / Fold change vs veh, ZEB2 / RFU, NRIP1 / Fold change vs veh, NRIP1 / RFU, PTTG1IP / Fold change vs veh, PTTG1IP / RFU, CAPN2 / Fold change vs veh, CAPN2 / RFU, MED14 / Fold change vs veh, MED14 / RFU, SNORA58 / Fold change vs veh, SNORA58 / RFU, C1orf63 / Fold change vs veh, C1orf63 / RFU, LRRFIP1 / Fold change vs veh, LRRFIP1 / RFU, NDUFAF7 / Fold change vs veh, NDUFAF7 / RFU, SLC12A2 / Fold change vs veh, SLC12A2 / RFU, IBTK / Fold change vs veh, IBTK / RFU, ESF1 / Fold change vs veh, ESF1 / Fold change vs veh, TMEM50B / RFU, TAOK1 / Fold change vs veh, TAOK1 / RFU, ACBD3 / Fold change vs veh, ACBD3 / RFU, TMA16 / Fold change vs veh, TMA16 / RFU, RWDD3 / Fold change vs veh, RWDD3 / RFU, BCAT1 / Fold change vs veh, BCAT1 / RFU, EDEM3 / Fold change vs veh, EDEM3 / RFU, TMEM33 / Fold change vs veh, TMEM33 / RFU, WDR75 / Fold change vs veh, WDR75 / RFU, AHCTF1 / Fold change vs veh, AHCTF1 / RFU, TFRC / Fold change vs veh, TFRC / RFU, ZDHHC17 / Fold change vs veh, ZDHHC17 / RFU, NOM1 / Fold change vs veh, NOM1 / RFU, ARL8B / Fold change vs veh, ARL8B / RFU, ZBTB11 / Fold change vs veh, ZBTB11 / RFU, TAMM41 / Fold change vs veh, TAMM41 / RFU, KIAA1704 /// LOC100996395 / Fold change vs veh, KIAA1704 /// LOC100996395 / RFU, ING1 / Fold change vs veh, ING1 / RFU, TRMT61B / Fold change vs veh, TRMT61B / RFU, FUBP3 / Fold change vs veh, FUBP3 / RFU, TP53 / Fold change vs veh, TP53 / RFU, TNKS2 / Fold change vs veh, TNKS2 / RFU, ZFP14 / Fold change vs veh, ZFP14 / RFU, ACTR2 / Fold change vs veh, ACTR2 / RFU, PPP3R1 / Fold change vs veh, PPP3R1 / RFU, PIK3R1 / Fold change vs veh, PIK3R1 / RFU, HNRNPA1 / Fold change vs veh, HNRNPA1 / RFU, RNF170 / Fold change vs veh, RNF170 / RFU, ZNF28 / Fold change vs veh, ZNF28 / RFU, RNGTT / Fold change vs veh, RNGTT / RFU, OGT / Fold change vs veh, OGT / RFU, BRD1 / Fold change vs veh, BRD1 / RFU, MARS / Fold change vs veh, MARS / RFU, ZNF655 / Fold change vs veh, ZNF655 / RFU, FAHD1 / Fold change vs veh, FAHD1 / RFU, BDP1 / Fold change vs veh, BDP1 / RFU, LRRCC1 / Fold change vs veh, LRRCC1 / RFU, ARID1A / Fold change vs veh, ARID1A / RFU, ZNF146 / Fold change vs veh, ZNF146 / RFU, ZNF330 / Fold change vs veh, ZNF330 / RFU, GPN3 / Fold change vs veh, GPN3 / RFU, C9orf123 / Fold change vs veh, C9orf123 / RFU, N4BP2L2 / Fold change vs veh, N4BP2L2 / RFU, ARFIP1 / Fold change vs veh, ARFIP1 / RFU, FAM179B / Fold change vs veh, FAM179B / RFU, BCL10 / Fold change vs veh, BCL10 / RFU, UHRF1BP1L / Fold change vs veh, UHRF1BP1L / RFU, BET1 / Fold change vs veh, BET1 / RFU, CNOT2 / Fold change vs veh, CNOT2 / RFU, ZNF268 / Fold change vs veh, ZNF268 / Fold change vs veh, ZNF507 / RFU, DGCR2 / Fold change vs veh, DGCR2 / RFU, WDSUB1 / Fold change vs veh, WDSUB1 / Fold change vs veh, HSP90B1 /// MIR3652 / RFU, ADSS / Fold change vs veh, ADSS / RFU, GK / Fold change vs veh, GK / RFU, ZNF148 / Fold change vs veh, ZNF148 / RFU, TAF9 / Fold change vs veh, TAF9 / RFU, SLC1A5 / Fold change vs veh, SLC1A5 / RFU, SLMO2 / Fold change vs veh, SLMO2 / RFU, ABCC4 / Fold change vs veh, ABCC4 / RFU, LOC101060439 /// RAP1B / Fold change vs veh, LOC101060439 /// RAP1B / RFU, RFX7 / Fold change vs veh, RFX7 / RFU, GTPBP10 / Fold change vs veh, GTPBP10 / RFU, CNEP1R1 / Fold change vs veh, CNEP1R1 / RFU, BIVM-ERCC5 /// ERCC5 / Fold change vs veh, BIVM-ERCC5 /// ERCC5 / RFU, ILF3 / Fold change vs veh, ILF3 / RFU 11762660_at / Fold change /veh 11762660_at / RFU VCAN (11757783_s_at) / Fold change /veh VCAN (11757783_s_at) / RFU DDX43 (11728927_at) / Fold change /veh DDX43 (11728927_at) / RFU KRT8 (11758188_x_at) / Fold change /veh KRT8 (11758188_x_at) / RFU NKD1 (11759106_at) / Fold change /veh NKD1 (11759106_at) / RFU SRD5A1 (11742802_a_at) / Fold change /veh SRD5A1 (11742802_a_at) / RFU TPSAB1 /// TPSB2 (11721975_s_at) / Fold change /veh TPSAB1 /// TPSB2 (11721975_s_at) / RFU GSTM3 (11746129_a_at) / Fold change /veh GSTM3 (11746129_a_at) / RFU IL23R (11737362_x_at) / Fold change /veh IL23R (11737362_x_at) / RFU TMEM51 (11727254_a_at) / Fold change /veh TMEM51 (11727254_a_at) / RFU PIWIL2 (11732686_x_at) / Fold change /veh PIWIL2 (11732686_x_at) / RFU ORM1 (11744905_x_at) / Fold change /veh ORM1 (11744905_x_at) / RFU CCDC152 (11743942_at) / Fold change /veh CCDC152 (11743942_at) / RFU ECM1 (11717891_a_at) / Fold change /veh ECM1 (11717891_a_at) / RFU IL23R (11748794_a_at) / Fold change /veh IL23R (11748794_a_at) / RFU TNFAIP8L3 (11732012_x_at) / Fold change /veh TNFAIP8L3 (11732012_x_at) / RFU MBOAT4 (11741988_at) / Fold change /veh MBOAT4 (11741988_at) / RFU 11764193_at / Fold change /veh 11764193_at / RFU TMEM53 (11763286_at) / Fold change /veh TMEM53 (11763286_at) / RFU MAGEB2 (11727129_at) / Fold change /veh MAGEB2 (11727129_at) / RFU TMEM200A (11744735_a_at) / Fold change /veh TMEM200A (11744735_a_at) / RFU CCDC152 (11751479_a_at) / Fold change /veh CCDC152 (11751479_a_at) / RFU FAM211A (11726209_a_at) / Fold change /veh FAM211A (11726209_a_at) / RFU RGS16 (11746705_a_at) / Fold change /veh RGS16 (11746705_a_at) / RFU VCAN (11755009_s_at) / Fold change /veh VCAN (11755009_s_at) / RFU RHOB (11743442_s_at) / Fold change /veh RHOB (11743442_s_at) / RFU RGS16 (11720943_a_at) / Fold change /veh RGS16 (11720943_a_at) / RFU RGS16 (11720944_at) / Fold change /veh RGS16 (11720944_at) / RFU, VPS4B / Fold change vs veh, VPS4B / RFU, CREB1 / Fold change vs veh, CREB1 / RFU, DNAJC13 / Fold change vs veh, DNAJC13 / RFU, GNAQ / Fold change vs veh, GNAQ / RFU, CDK5R1 / Fold change vs veh, CDK5R1 / RFU, ZRANB3 / Fold change vs veh, ZRANB3 / RFU, CUL4A / Fold change vs veh, CUL4A / RFU, CCNY / Fold change vs veh, CCNY / RFU, UFL1 / Fold change vs veh, UFL1 / RFU, COG3 / Fold change vs veh, COG3 / RFU, DIAPH2 / Fold change vs veh, DIAPH2 / RFU, SKA2 / Fold change vs veh, SKA2 / RFU, AFF3 / Fold change vs veh, AFF3 / RFU, LMF1 / Fold change vs veh, LMF1 / RFU, IPO11 / Fold change vs veh, IPO11 / RFU, DFFB / Fold change vs veh, DFFB / RFU, FOXP1 / Fold change vs veh, FOXP1 / RFU, CARD8 / Fold change vs veh, CARD8 / RFU, STRN3 / Fold change vs veh, STRN3 / RFU, ADK / Fold change vs veh, ADK / RFU, RASSF2 / Fold change vs veh, RASSF2 / RFU, WIPF1 / Fold change vs veh, WIPF1 / RFU, LARP1B / Fold change vs veh, LARP1B / RFU, RASA1 / Fold change vs veh, RASA1 / RFU, RB1 / Fold change vs veh, RB1 / RFU, PPFIA1 / Fold change vs veh, PPFIA1 / RFU, MAT2A / Fold change vs veh, MAT2A / RFU, CCT5 / Fold change vs veh, CCT5 / RFU, WDR92 / Fold change vs veh, WDR92 / RFU, CUX1 / Fold change vs veh, CUX1 / RFU, TTC7A / Fold change vs veh, TTC7A / RFU, TMEM135 / Fold change vs veh, TMEM135 / RFU, DEPTOR / Fold change vs veh, DEPTOR / RFU, CPM / Fold change vs veh, CPM / RFU, DNAJB6 / Fold change vs veh, DNAJB6 / RFU, CACNA2D3 / Fold change vs veh, CACNA2D3 / RFU, DTX4 / Fold change vs veh, DTX4 / RFU, TFCP2 / Fold change vs veh, TFCP2 / RFU, GMCL1 /// GMCL1P1 / Fold change vs veh, GMCL1 /// GMCL1P1 / RFU, AEBP2 / Fold change vs veh, AEBP2 / RFU, SNHG1 /// SNORD22 /// SNORD25 /// SNORD26 /// SNORD27 /// SNORD28 /// SNORD29 /// SNORD31 / Fold change vs veh, SNHG1 /// SNORD22 /// SNORD25 /// SNORD26 /// SNORD27 /// SNORD28 /// SNORD29 /// SNORD31 / Fold change (Aza/veh), C12orf56 (ProbeSet 11735607_a_at) / Fold change (ACY-1035/veh), C12orf56 (ProbeSet 11735607_a_at) / Fold change (Aza/veh), FGFR1OP (ProbeSet 11751329_s_at) / Fold change (ACY-1035/veh), FGFR1OP (ProbeSet 11751329_s_at) / Fold change (Aza/veh), VPS36 (ProbeSet 11739960_a_at) / Fold change (ACY-1035/veh), VPS36 (ProbeSet 11739960_a_at) / RFU SYPL1 (11715823_x_at) / Fold change /veh SYPL1 (11715823_x_at) / RFU IGFBP7 (11715501_s_at) / Fold change /veh IGFBP7 (11715501_s_at) / RFU REEP3 (11722064_at) / Fold change /veh REEP3 (11722064_at) / RFU IGLL1 (11728026_x_at) / Fold change /veh IGLL1 (11728026_x_at): dose or concentration left out as unconfirmed", "details": "ProbeSet 11728879_at; LIST B"}
{"smiles": "Nc1ccc(-c2cccs2)cc1NC(=O)c1ccc2c(c1)cc(C1CC1)n2CCN1CCOCC1", "note": "[ACY-1035]", "values": [{"measurement": "RFU, PPP3R1", "value": 371.71, "unit": "RFU"}]}
